From patent publication US20230286816A1, “LITHIATED SILICON” (KING'S COLLEGE LONDON, priority 2020, published 2023)

Test system: Wnt/β-catenin cell signalling pathway (downstream target gene Axin2)
Assay: Axin2 expression (qPCR) in cells in medium conditioned with particles
Type: cell-based
Conditions: 25 mM LiCl, 17IA4 cells
Description: Biological activity of released lithium was measured by monitoring activation of Wnt/β-catenin cell signalling pathway by measuring the expression of the pathway's well-known downstream target gene Axin2. The experiment was done with cell medium conditioned with corresponding batch of nanoparticles. Known amounts of LipSi nanoparticles were pelleted with a centrifuge and sterile supernatant was removed. Nanoparticles were dried under tissue culture hood. Cell medium (αMEM supplemented with 10% FBS, 1% antibiotic/antimycotic solution and 25 mM HEPES) was added onto pellet and particles were redispersed with ultrasound. Concentrations of the particles were 0.8 mg/ml (FIG. 6a) and 1.6 mg/ml (FIG. 6b). Vials were incubated in thermoshaker at 37° C. for four days. Particles were centrifuged down and supernatant was collected under sterile conditions. Conditioned medium (supernatant) was filtered with 0.22 μm syringe filter.
20,000 cells/cm^2 of mesenchymal cells (17IA4) were seeded onto 24 well plate. Cells were incubated approximately for 24 hours until 80% confluent and the normal medium was changed to conditioned. Cells were incubated (37° C., 5% CO2) in conditioned medium for 24 h. […] Reported fold changes represent Axin2 expression in the sample compared to Axin2 expression in medium and they are calculated with ΔΔCt method as known in the art.

[Cl-].[Li+] [LiCl, lithium chloride]
increase of Axin2 expression compared to medium (experiment of FIG. 6a (with SS9)): 3.2 fold
increase of Axin2 expression compared to medium (experiment of FIG. 6b (with SS19)): 2.6 fold
